Legend:
renal distal tubules [1] = test: Intracellular Ca2+ imaging by 2-photon microscopy in Fluo-4-loaded live kidney slices ex vivo; type: cell-based, mice; details: Klotho/VDR kidney slices; co-treatment with 200 ng/ml rFGF23, 2 h; ruthenium red 10 µM; closantel 30 ng/mL; PD173074 10 nM (iFGFR1) or 25 nM (FGFR1/3); iFGFR pan 120 nM
Procedure: (§1) The preparation of kidney slices for ex vivo experiments was performed as described in Andrukhova O et al. (EMBO J., 2014. 33, 229-246). Longitudinal 200-µm-thick live slices from freshly isolated kidneys of 3-month-old male WT and Klotho/VDR mice were prepared using a Leica VT1000 Vibratome (Leica Microsystems), and were used for ex vivo treatment with various substances as described below.
(§2) Longitudinal 200-µm-thick live slices of freshly isolated kidneys were prepared using a Leica VT1000 Vibratome (Leica Microsystems). For Na^+ imaging, the kidney slices of WT and Klotho/VDR mice were incubated for 60 min at 37°C with 2 µM of the sodium-sensitive dye SBFI (Molecular Probes), diluted in DMSO (Merck Millipore International) and 20% Pluronic (Merck Millipore International). For Ca^2+ imaging, the kidney slices were incubated for 30 min at 37°C with 2 µM of the calcium-sensitive dye Fluo-4 (Molecular Probes), diluted in DMSO and 20% Pluronic. Thereafter, the slices were washed two times for 20 min each in 0.1M PBS, and were subsequently incubated in vitro with vehicle (PBS), rFGF23 R176/179Q [(100 or 200 ng/ml) kindly provided by Amgen Inc., Thousand Oaks, CA, USA], PD173074 (Sigma-Aldrich) (10 nM for inhibiting FGFR1 and 25 nM for inhibiting FGFR1 and 3), pan FGFR inhibitor [(120 nM) FIIN1 hydrochloride, Tocris Bioscience, Bristol, UK)], WNK signalling inhibitor Closantel (30 ng/mL, generous gift of Dario R. Alessi) alone or combined at 37°C, 5% CO2 / 95% air humidified atmosphere for 2 h. […] For visualization of intracellular Na^+ and Ca^2+ content, SBFI or Fluo-4 were excited by a Ti:sapphire laser (Chameleon, Coherent Inc.) at 820 nm. Images (512 × 512 pixels) were acquired every 30 sec at a depth of 60 - 80 µm. Fluorescence images were analyzed using Image J software. The whole epithelial layer of the distal tubules was selected by manually drawing the region of interest (ROI) to quantify intracellular Na^+ and Ca^2+ levels. Fluorescence intensity was quantified in 4-9 ROIs per image, and the ratio between the fluorescence intensity and the ROI area was calculated for each tubule. This ratio was used for all subsequent calculations.
(§3) To gain more insight into the functional role of the rFGF23-induced increase in distal renal tubular ion channel expression and the FGF receptors involved, we performed intracellular Ca^2+ and Na^+ imaging by 2-photon microscopy in Fluo-4- or SFBI-loaded and subsequently rFGF23-treated (100 or 200 ng/ml for 2 h), 200-µm-thick renal slices prepared from WT and Klotho/VDR mice.
(§4) In this example it was assessed whether the Klotho-independent FGF23 signalling pathway is mediated through FGFR3 and/or 4, given that FGFR2 expression was low in distal renal tubules (Figure 12A). To dissect between the latter receptors, Klotho/VDR kidney slices were treated with rFGF23 alone or in combination with an FGFR1/FGFR3 inhibitor and the WNK signalling inhibitor closantel.

5/6 Nx (CKD) WT mice = test: 5/6 nephrectomy CKD model, closantel orally via the diet over 8 weeks; type: in vivo
Procedure: The 5/6 nephrectomy (5/6 Nx) was performed in two stages (Leelahavanichkul A et al., Kidney Int. 78, 2010. 1136-1153) under isoflurane anesthesia (Fig. 1A). Pain was managed by s.c. injections of buprenorphine, metamizol and meloxicam. Additionally, the animals were treated for 3 days postsurgery with the analgesic piritramid via the drinking water, starting 6 h postsurgery. At the first stage (wk -1), the left kidney was decapsulated to avoid ureter and adrenal damage, and the upper and lower poles were partially resected via a left flank incision. Bleeding was controlled by microfibrillar collagen hemostasis (Avitene, Davol, Cranston, RI). The upper and lower poles were weighed. One week later, the entire right kidney was removed via a right flank incision and weighed. Animals with insufficient kidney resection as determined by a ratio of < 0.55 for the removed left kidney weight to the removed right kidney weight were euthanized. In the Sham surgery control mice, a left flank incision was performed at step 1, both poles of kidney were identified, then the flank incision was closed; a subsequent right flank incision was performed at step 2; the right renal artery was identified, then the flank incision was closed. After each flank incision, muscles and skin were repositioned and sewed. Mortality was tracked throughout the study. Necropsy was not performed on animals that died early.
For this experiment, WT Sham and 5/6-Nx mice were fed powdered rescue diet throughout the study. Closantel (Abcam) was dissolved in 100% ethanol (vehicle), and mixed into the moistened diet. To achieve a loading dose of 5 mg/kg body weight, the drug was mixed into the food at an initial concentration of 30 mg/kg diet. […] All mice were killed 8 weeks postsurgery.
Central arterial pressure and cardiac hemodynamic parameters were assessed using a SPR-671NR pressure catheter (1.4 French; Millar Instruments). Mice were anesthetized with 1.5% isoflurane in oxygen. The catheter was inserted into the ascending aorta for measurement of central arterial pressure. Parameters of LV function (i.e., maximum rate of the pressure rise, contractility index, end-diastolic pressure, and isovolumetric relaxation time) were measured by placing the catheter into the left ventricle. All pressure recordings were performed at the same anesthesia level. Hemodynamic measurements were recorded over 5 min, and traces were analyzed using LabChartPro software and a blood pressure (BP) module. After pressure measurements, all animals were euthanized.
The blood volume was determined from plasma volume and hematocrit as described in Lee H B & Blaufox M D (J. Nucl. Med., 1985. 26, 72-76). Plasma volume was determined by Evans blue dye dilution (Barron W M et al., J. Clin. Invest, 1984. 73, 923-932). Briefly, 20 µl of a 0.4% (wt/vol) solution of Evans blue (Sigma) in sterile physiological saline was injected into a tail vein. Blood samples (10 µl) were collected at 10 min and 30 min after injection to measure disappearance kinetics. Tubes were centrifuged and the hematocrit was recorded. Evans blue concentration in the plasma was measured in duplicate as optical density using the 2-wavelength method.
Total kidney homogenates, kidney cortex homogenates or total cell membrane preparations were solubilized in Laemmli sample buffer, fractionated on SDS- PAGE (30 µg/well) and transferred to a nitrocellulose membrane (Thermo Scientific). […] After washing, membranes were incubated with horseradish peroxidase-conjugated secondary antibodies (Amersham Life Sciences). Specific signal was visualized by ECL kit (Amersham Life Sciences). The protein bands were quantified by Image Quant 5.0 software (Molecular Dynamics). Loading of the samples was normalized to Ponceau S stain. The expression levels were normalized to β-actin expression. […]

renal distal tubules [2] = test: Intracellular Na+ imaging by 2-photon microscopy in SBFI-loaded live kidney slices ex vivo; type: cell-based, mice; details: Klotho/VDR kidney slices; co-treatment with 200 ng/ml rFGF23, 2 h; closantel 30 ng/mL; BF 15 µM; PD173074 10 nM (iFGFR1) or 25 nM (FGFR1/3); iFGFR pan 120 nM
Procedure: as §1, §2, §3, §4

[3] = molecular target: WNK-regulated kinase SPAK (Ste20-like proline/alanine-rich kinase) (Homo sapiens, UniProt Q9UEW8); details: literature (Kikuchi et al. 2014); cited from earlier work
[4] = in vivo, cited from earlier work
[5] = Western blotting, renal total homogenates, CKD mice, 8 weeks postsurgery
[6] = oral via diet once a week, 8 weeks postsurgery

SMILES: Cc1cc(C(C#N)c2ccc(Cl)cc2)c(Cl)cc1NC(=O)c1cc(I)cc(I)c1O (centres unmarked) [closantel, N-[5-chloro-4-[(4-chlorophenyl)-cyanomethyl]-2-methylphenyl]-2-hydroxy-3,5-diiodobenzamide]
- rFGF23-induced increase in intracellular Ca^2+ fluorescence (distal tubular Ca^2+ uptake) (renal distal tubules [1]): abrogated
- urinary excretion of Na^+ (5/6 Nx (CKD) WT mice; CKD mice, 8 weeks postsurgery): increased
- disease progression in CKD mice (5/6 Nx (CKD) WT mice; Figure 13 legend, oral via diet once a week over 8 weeks): largely protects
- renal pNCC expression (5/6 Nx (CKD) WT mice; [5]): downregulation
- renal pNKCC expression (5/6 Nx (CKD) WT mice; [5]): downregulation
- renal pWNK1 expression (5/6 Nx (CKD) WT mice; [5]): downregulation
- CKD-induced increase in HW/BW ratio (5/6 Nx (CKD) WT mice; [6]): largely prevented
- CKD-induced increase in blood pressure (5/6 Nx (CKD) WT mice; [6]): largely prevented
- CKD-induced increase in blood volume (5/6 Nx (CKD) WT mice; [6]): largely prevented
- CKD-driven decline in GFR (5/6 Nx (CKD) WT mice; oral via diet once a week, loading dose 5 mg/kg body weight, 8 weeks postsurgery): largely prevented
- rFGF23-induced increase in intracellular Na^+ fluorescence (distal tubular Na^+ uptake) (renal distal tubules [2]): abrogated
- inhibition of the WNK-regulated kinase SPAK [3]: potent inhibitors
- bioavailability ([4]; po): ~50%
- plasma half-life [4]: 14 days
